Results: patent US20240216354A1, “IMMUNOMODULATORY IMIDE DRUGS AS ZETA-CHAIN-ASSOCIATED PROTEIN KINASE 70 (ZAP70) AGONISTS AND USES THEREOF” (Dana-Farber Cancer Institute, Inc., priority 2019, published 2024)
Values belong to the molecule of their own block, whether it stands above or below them.

What was measured:
[1] = target: T1, Zap-70 (Homo sapiens, UniProt P43403); assay: Saturation-transfer difference (STD) NMR binding to recombinant Zap-70; set-up: purchased Origene, Rockville, MD; settings: Pom 320 μM, Len 2.56 mM, ATP 2.56 mM, Zap-70 approximately 2 μM, deuterated PBS
T1 sequence (P43403 1-619): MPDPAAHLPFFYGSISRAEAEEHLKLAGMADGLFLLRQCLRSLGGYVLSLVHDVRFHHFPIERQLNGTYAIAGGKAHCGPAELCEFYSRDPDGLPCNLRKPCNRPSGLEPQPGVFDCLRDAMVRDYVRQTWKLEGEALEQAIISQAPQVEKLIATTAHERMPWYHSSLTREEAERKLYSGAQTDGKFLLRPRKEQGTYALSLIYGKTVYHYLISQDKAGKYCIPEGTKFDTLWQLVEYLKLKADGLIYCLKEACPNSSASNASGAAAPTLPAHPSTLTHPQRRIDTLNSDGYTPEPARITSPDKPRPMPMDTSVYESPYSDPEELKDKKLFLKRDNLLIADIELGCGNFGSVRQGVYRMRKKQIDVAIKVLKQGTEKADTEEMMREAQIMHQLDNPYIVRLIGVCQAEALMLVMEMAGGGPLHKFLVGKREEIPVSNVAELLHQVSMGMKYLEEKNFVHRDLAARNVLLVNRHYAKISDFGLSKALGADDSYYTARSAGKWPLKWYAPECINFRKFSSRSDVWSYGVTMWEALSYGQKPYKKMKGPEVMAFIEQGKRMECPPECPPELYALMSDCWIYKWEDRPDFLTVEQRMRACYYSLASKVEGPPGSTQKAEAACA
Procedure: (§1) (A) Jurkat cells were transfected with scrambled (Sc) siRNA or Zap-70 siRNA. Whole cell lysates were subjected to immunoblotting using indicated Abs. (B) Jurkat cells were treated with lenalidomide ([…]) or pomalidomide (1 and 3 μM) for 4 h and 8 h. Whole cell lysates were subjected to p-Zap ELISA assay. (C) Jurkat whole cell lysates were incubated with pomalidomide-beads in the presence or absence of competitor (1 mM free pomalidomide) for 1 h. After elution, samples were subjected to immunoblotting using anti-Zap-70 Ab. (D) Saturation-transfer difference resulting from the binding of pomalidomide to Zap-70. Pomalidomide is at 320 μM and Zap-70 is approximately 2 μM in deuterated PBS solution. […] (E) Saturation-transfer difference resulting from the binding of pomalidomide to Zap-70 in the presence of 2.56 mMATP. Pomalidomide is at 320 μM and Zap-70 is approximately 2 μM in deuterated PBS solution. […] Note that both ATP and pomalidomide show binding the Zap-70. (F) Non-cell based Zap-70 kinase assay was carried out, according to manufacturer's protocol.
(A) Saturation-transfer difference resulting from the binding of lenalidomide to Zap-70, with lenalidomide (2.56 mM) and Zap-70 (2 μM) in deuterated PBS solution. […] (B) Saturation-transfer difference resulting from the binding of lenalidomide to Zap70 in the presence of 2.56 mM ATP, with lenalidomide (2.56 mM) and Zap-70 (2 μM) in deuterated PBS solution.
Commercial recombinant Zap-70 (Origene, Rockville, MD) was prepared by gel filtration buffer exchange into deuterated phosphate-buffered saline (PBS), which removed any components of the protein storage buffer, including glycerol. Len and Pom were made as d6-DMSO stock solutions and frozen in aliquots prior to use. ATP was stored frozen in aliquots at −20° C. in deuterated PBS. NMR samples were prepared in 5 mm SampleJet tubes to a final volume of 500 μl by adding 5-20 μl of the appropriate IMiD stock solution to the buffer-exchanged protein. The final concentration of protein in the NMR samples was approximately 2 μM. […]

[2] = tested on: IKZF3; assay: IKZF3 expression in KHYG-1 cells (immunoblotting); type: cell-based
Procedure: (§2) (A) KHYG-1 cells were transfected with CRBN, IKZF1, or IKZF3 siRNA. The transfectants were then cultured for 24 h with pomalidomide (0.5 μM). The arrow indicates CRBN. (B) KHYG-1 cells were cultured with pomalidomide for 24 h (0.5 μM), in the presence or absence of bortezomib (BTZ; 2.5 and 5 nM). (C, D) KHYG-1 cells were cultured for 24 h with lenalidomide, pomalidomide, or CC-220 (i.e., iberdomide) (0.01-1 μM). Whole cell lysates and RNAs were subjected to immunoblotting using indicated Abs (C) and real-time q-PCR (D), respectively.

[3] = tested on: U266 cells; assay: NK-92 NK cell activity against calcein-AM-stained U266 cells; type: cell-based; settings: NK-92 cells, 48 h; Pom 0.5 and 1 μM; CC-220 0.1 and 1 μM, E/T 2.5/1
Procedure: (§3) (A) NK-92 cells were cultured with Pom (0.5 and 1 μM) for 24 h. Whole cell lysates were subjected to immunoblotting using indicated Abs. (B) NK-92 cells were cultured with Pom (0.5 and 1 μM) for 48 h. The cells were subsequently incubated with calcein-AM-stained U266 cells for 4 h at the indicated effector/target (E/T) ratios. Percent specific lysis was calculated as described previously. (C) NK-92 cells were cultured with Pom (0.03-3 μM) for 72 h. Cell growth was assessed by MTT assay. (D) NK-92 cells were transfected with scrambled (Sc) or Zap-70 siRNA (Zap70si). After 72 h incubation, cell viability was measured by trypan-blue dye exclusion. For B, C, and D, data are representative of at least two independent experiments, and values are expressed in mean±SD.
(§4) (A) NK-92 cells were cultured with Len (1 μM), Pom (0.01, 0.1, 1 μM) or CC-220 (0.01, 0.1, 1 μM) for 24 h. Whole cell lysates were subjected to immunoblotting using indicated Abs. (B) NK-92 cells were cultured with Pom (0.1 and 1 μM) or CC-220 ([…]) for 48 h. NK cell activity was measured by incubation with calcein AM-labeled U266 cells for 4 h at E/T ratio of 2.5/1. Percent specific lysis was calculated as previously described. Data are representative of three independent experiments, and values are expressed in mean±SD. *: p<0.01.

[4] = target: CRBN (Homo sapiens, UniProt Q96SW2); settings: cited from earlier work
Sequence of CRBN (Q96SW2 whole entry, species assumed): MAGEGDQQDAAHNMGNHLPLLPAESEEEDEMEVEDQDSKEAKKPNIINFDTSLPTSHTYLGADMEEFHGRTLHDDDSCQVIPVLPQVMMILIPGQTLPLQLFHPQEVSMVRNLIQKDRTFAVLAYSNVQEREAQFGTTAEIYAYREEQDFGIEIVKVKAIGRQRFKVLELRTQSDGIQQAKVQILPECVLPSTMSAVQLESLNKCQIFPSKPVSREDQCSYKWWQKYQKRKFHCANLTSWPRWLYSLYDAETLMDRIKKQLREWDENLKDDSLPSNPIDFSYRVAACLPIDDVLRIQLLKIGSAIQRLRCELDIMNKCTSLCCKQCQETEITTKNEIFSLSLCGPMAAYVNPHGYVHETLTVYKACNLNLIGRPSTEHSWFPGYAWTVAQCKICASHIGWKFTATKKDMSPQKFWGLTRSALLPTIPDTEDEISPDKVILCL

[5] = tested on: granzyme-B (GZM-B); assay: GZM-B expression in KHYG-1 cells (immunoblotting, real-time qPCR); type: cell-based
Procedure: (A) KHYG1 cells were cultured with pomalidomide (0.25-1 μM) for 24 h. (B) Isolated primary NK cells from healthy volunteers (#1, #2) were cultured with pomalidomide (0.3-1 μM) for 24 h. (C) KHYG-1 cells were transfected with Scsi or Zap-70si. After 48 h, cells were cultured for 24 h in the absence or presence (0.5 μM) of pomalidomide. Whole cell lysates and RNAs were subjected to immunoblotting using indicated Abs.
(A) KHYG-1 cells were transfected with Scsi or CRBNsi. After 48 h, cells were cultured in the absence or presence of pomalidomide (0.5 μM) for 24 h, and cell lysates immunoblotted with indicated Abs. (B) KHYG-1 cells were transfected with Scsi or Zap-70si, and then cultured for 72 h with pomalidomide (0.25 μM), in the absence of IL-2. Cells were counted and incubated with calcein AM-labeled U266 for 4 h at indicated effector/target (E/T) ratios.
as §2

[6] = target: T1, Zap-70; assay: Immunoblotting of p-Zap-70 in NK-92 cells; type: cell-based; settings: 24 h, Pom 0.5 and 1 μM, CC-220 0.01, 0.1, 1 μM
Procedure: as §3, §4

[7] = target: T1, Zap-70; assay: Immunoblotting of p-Zap-70, p-LAT and p-ERK in PBMCs; type: cell-based; set-up: endogenous in cells; host or cells: primary PBMCs, primary T cells and primary NK cells from healthy volunteers; settings: 16 h, Pom 0.01-1 μM, Len 1 μM
Procedure: (A) PBMCs were cultured with pomalidomide (“Pom”) (0.01-1 μM) for 16 h. […] (B) PBMCs were cultured with pomalidomide (0.1 and 1 μM) for the indicated time periods. (C) PBMCs were cultured with lenalidomide (“Len”) (1 μM) for 16 h. (D) Primary T-cells from healthy volunteer were cultured with pomalidomide (0.25-1 μM) for 16 h. (E) Jurkat cells were cultured with pomalidomide (0.5 and 1 μM) for 16 h. Whole cell lysates were subjected to immunoblotting (A-E) using indicated Abs. (F) Jurkat cells were cultured with pomalidomide (0.01-1 μM) or lenalidomide (0.01-1 μM) for 72 h. Cell growth was assessed by MTT assay.
To characterize the effect of IMiDs on Zap-70 function in immune effector cells, pomalidomide triggered phosphorylation of Zap-70 was evaluated along with its known downstream target linker of activated T-cells (LAT) in PBMCs from healthy volunteers. […] Image J densitometric analysis confirmed 42% increased p-Zap-70 after pomalidomide (1 μM) treatment (FIG. 1A, lower panel). The increased p-Zap-70, p-LAT, as well as downstream p-ERK in PBMCs triggered by pomalidomide is also time-dependent (FIG. 1B). […] Since Zap-70 is a mediator of T-cell receptor signaling, whether IMiDs triggered p-Zap-70 in T cells from healthy volunteers was studied.

[8] = target: T1, Zap-70; assay: PathScan Phospho-Zap-70 (Tyr319) Sandwich ELISA in Jurkat cells; type: cell-based; settings: lenalidomide (1 and 3 μM) or pomalidomide (1 and 3 μM), 4 h and 8 h, Len<Pom
Procedure: as §1
Phosphorylation of Zap-70 was evaluated using PathScan Phospho-Zap-70 (Tyr319) Sandwich ELISA Kit (Cell Signaling Technology), according to manufacturer's protocol.

[9] = pomalidomide 0.5 μM 24 h, BTZ 2.5 and 5 nM

SMILES: Nc1ncnc2c1ncn2[C@@H]1O[C@H](COP(=O)(O)OP(=O)(O)OP(=O)(O)O)[C@@H](O)[C@H]1O [ATP]
direct binding to Zap-70 (STD NMR) [1]: both ATP and lenalidomide bind to Zap-70

SMILES: O=C1CC[C@H](N2Cc3c(OCc4ccc(CN5CCOCC5)cc4)cccc3C2=O)C(=O)N1 [CC-220, iberdomide]
IKZF3 expression ([2]; 0.01-1 μM, 24 h): downregulation of IKZF3
NK cell activity against U266 cells (percent specific lysis) [3]: enhanced NK cell activity
binding affinity to CRBN relative to lenalidomide or pomalidomide [4]: enhanced binding affinity to CRBN relative to lenalidomide or pomalidomide
potency in triggering GZM-B, compared among lenalidomide, pomalidomide and CC-220 ([5]; 0.01-1 μM, 24 h, immunoblotting and real-time qPCR): more potently upregulated GZM-B than lenalidomide or pomalidomide
p-Zap-70 (immunoblotting) [6]: induced p-Zap-70 in a dose-dependent fashion

SMILES: CC(C)C[C@H](NC(=O)[C@H](Cc1ccccc1)NC(=O)c1cnccn1)B(O)O [bortezomib]
IKZF3 expression in presence of bortezomib [2, 9]: upregulation of IKZF3
Pom-induced GZM-B expression in presence of bortezomib [5, 9]: downregulated Pom-induced GZM-B expression in a dose-dependent fashion

direct binding to Zap-70 (STD NMR) [1]: similarly binds to Zap-70
SMILES: Nc1cccc2c1CN(C1CCC(=O)NC1=O)C2=O (stereo not drawn) [lenalidomide]
phosphorylation of LAT (immunoblotting) [7]: similarly triggered p-Zap-70 and p-LAT in PBMCs
phosphorylation of Zap-70 (immunoblotting) [7]: similarly triggered p-Zap-70 and p-LAT in PBMCs
p-Zap-70 (Tyr319) by ELISA [8]: increased p-Zap-70 (Tyr319) in a dose-dependent fashion
